Experiments:
[1] = Microsomal stability; settings: for Microsomal stability (%): % compound remaining in mouse liver microsomes at 30 min
[2] = target: 403 wild type human kinases; assay: DiscoverX KINOMEscan scanMAX panel; assay type: binding; settings: for kinases with >75% displacement of the immobilized ligand: scanMAX panel of 403 wild type human kinases at 1 μM
[3] = target: T1, STK17B (Homo sapiens, UniProt O94768); assay: DiscoverX KINOMEscan binding, STK17B; settings: DiscoverX binding assay
T1 sequence (O94768 1-372): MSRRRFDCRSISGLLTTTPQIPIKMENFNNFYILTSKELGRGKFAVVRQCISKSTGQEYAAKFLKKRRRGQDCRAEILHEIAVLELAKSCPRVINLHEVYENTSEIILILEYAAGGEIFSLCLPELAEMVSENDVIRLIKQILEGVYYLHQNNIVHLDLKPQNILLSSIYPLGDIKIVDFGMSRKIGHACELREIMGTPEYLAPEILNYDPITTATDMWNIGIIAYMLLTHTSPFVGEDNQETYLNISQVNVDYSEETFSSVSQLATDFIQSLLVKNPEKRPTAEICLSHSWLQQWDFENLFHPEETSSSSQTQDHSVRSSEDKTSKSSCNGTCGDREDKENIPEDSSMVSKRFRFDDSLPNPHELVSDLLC

[4] = target: T1, STK17B; assay: NanoBRET target engagement in HEK293 cells, STK17B; assay type: cell-based
[5] = target: T2, STK17A (Homo sapiens, UniProt Q9UEE5); assay: Eurofins enzyme inhibition assay, STK17A; assay type: biochemical
T2 sequence (Q9UEE5 1-414): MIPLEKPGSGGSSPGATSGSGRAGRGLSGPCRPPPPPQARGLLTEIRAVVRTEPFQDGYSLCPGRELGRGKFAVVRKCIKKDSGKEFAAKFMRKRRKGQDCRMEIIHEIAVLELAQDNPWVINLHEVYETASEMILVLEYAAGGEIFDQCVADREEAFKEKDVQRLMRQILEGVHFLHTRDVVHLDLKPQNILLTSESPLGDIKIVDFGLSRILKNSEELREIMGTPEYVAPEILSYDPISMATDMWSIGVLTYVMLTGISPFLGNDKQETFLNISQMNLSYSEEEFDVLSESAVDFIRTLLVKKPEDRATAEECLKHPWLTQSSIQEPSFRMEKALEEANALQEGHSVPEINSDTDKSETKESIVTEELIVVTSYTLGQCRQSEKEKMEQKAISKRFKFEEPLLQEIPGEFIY

[6] = target: T1, STK17B
[7] = target: T1, STK17B; assay: biochemical
[8] = tested on: DAPK family; settings: read-out: IC50 on the DAPK family; cited from earlier work
[9] = target: T1, STK17B; settings: KinaseSeeker IC50, compared with 4
[10] = tested on: Tpl2; settings: read-out: Tpl2 IC50; Reported by Ni et al; cited from earlier work

With `O=C(O)CSc1ncnc2cc(-c3ccc(C4CC4)cc3)sc12` [Compound 11h, 2-((6-(4-Cyclopropylphenyl)thieno[3,2-d]pyrimidin-4-yl)thio)acetic acid] as the molecule, how does the “Microsomal stability (%)” value [1] read?
Its value is over 50%.

For `O=C(O)CSc1ncnc2cc(-c3ccc(N4CCOCC4)cc3)sc12` [Compound 11p, 2-((6-(4-Morpholinophenyl)thieno[3,2-d]pyrimidin-4-yl)thio)acetic acid], which “Microsomal stability (%)” value [1] is on record?
The value was over 50%.

For `O=C(O)CSc1ncnc2cc(-c3cc4ccccc4s3)sc12` [Compound 11s, 2-((6-(Benzo[b]thiophen-2-yl)thieno[3,2-d]pyrimidin-4-yl)thio)acetic acid], which “kinases with >75% displacement of the immobilized ligand” value [2] is on record?
The value was “Eight”.

What about the “selectivity over CAMKK1 and CAMKK2” value [3] of the same molecule?
The value was under 10 fold.

And the “selectivity for STK17B over CAMKK2 in cells” value ([4]; NanoBRET target engagement assays)?
Its value is over 10 fold.

And the IC50 [5]?
The IC50 was 5 to 9 µM.

And the “selectivity for STK17B over STK17A” value ([6]; enzyme assays)?
The value was over 100 fold.

And the “selectivity for STK17B over all of the other kinases tested” value ([6]; enzyme assays)?
The value was over 100 fold.

And the IC50 [7]?
The IC50 was 43 ± 3.5 nM.

What about the “Microsomal stability (%)” value [1] of the same molecule?
The value was over 50%.

With `CN1CCN(c2ccc3nc(-c4c(N)c5c(F)cccc5[nH]c4=O)[nH]c3c2)CC1` [dovitinib] as the molecule, how does the IC50 [8] read?
Its IC50 is 1000 to 5000 nM.

For `CSc1cccc(-c2cc3ncnc(SCC(=O)O)c3s2)c1` [Compound 11b, 2-((6-(3-(Methylthio)phenyl)thieno[3,2-d]pyrimidin-4-yl)thio)acetic acid], which “fold less potent than 4 in the STK17B cell assay” value ([4]; NanoBRET IC50, compared with 4) is on record?
Its value is “about 2.5 fold”.

And the “fold less potent than 4 in the STK17B binding assay” value [9]?
Its value is “about 2.5 fold”.

Which “Microsomal stability (%)” value [1] does the source give for `O=C(O)CSc1ncnc2cc(-c3cccc(N4CCOCC4)c3)sc12` [Compound 11o, 2-((6-(3-Morpholinophenyl)thieno[3,2-d]pyrimidin-4-yl)thio)acetic acid] here?
The value was over 50%.

Which results are given for `CSc1ccc(-c2cc3ncnc(SCC(=O)O)c3s2)cc1` [Compound 4, 2-((6-(4-(Methylthio)phenyl)thieno[3,2-d]pyrimidin-4-yl)thio)acetic acid]?
IC50 [10]: 3400 nM; compound consumed in mice liver microsomes ([1]; After 30 minutes): 100%

Which “kinases with >65% displacement of the immobilized ligand” value ([2]; scanMAX panel at 1 μM) does the source give for `O=C(O)CSc1ncnc2sc(-c3cc4ccccc4s3)cc12` [Compound 19g, 2-((6-(Benzo[b]thiophen-2-yl)thieno[2,3-d]pyrimidin-4-yl)thio)acetic acid] here?
Its value is 5.

What about the “kinases with >75% displacement of the immobilized ligand” value [2] of the same molecule?
Its value is “no kinase”.

What about the “fold less active as an inhibitor of STK17B than the chemical probe 11s” value ([6]; 19g compared to 11s (Table 9)) of the same molecule?
The value was over 100 fold.

With `COc1ccc(-c2cc3ncnc(SCC(=O)O)c3s2)cc1F` [Compound 11z, 2-((6-(3-Fluoro-4-methoxyphenyl)thieno[3,2-d]pyrimidin-4-yl)thio)acetic acid] as the molecule, how does the “drop in cell potency” value ([4]; NanoBRET, compared with 11y) read?
The value was 1.3 fold.

For `O=C(O)COc1ncnc2cc(-c3ccc4[nH]ncc4c3)sc12` [Compound 6, reference compound], which IC50 [10] is on record?
Its IC50 is 1000 nM.
